Measurements: ChEMBL document CHEMBL1649066, “An imidazopiperidine series of CCR5 antagonists for the treatment of HIV: the discovery of N-{(1S)-1-(3-fluorophenyl)-3-[(3-endo)-3-(5-isobutyryl-2-methyl-4,5,6,7-tetrahydro-1H-imidazo[4,5-c]pyridin-1-yl)-8-azabicyclo[3.2.1]oct-8-yl]propyl}acetamide (PF-232798)” (J Med Chem, 2011)
Activity calls are given as the source filed them. The rule behind the calls is not given here.

Columns and labels:
[1] = Plasma protein binding in dog at 0.5 mg/kg, iv and 1 mg/kg, po; assay type: ADME, organism-based, Canis lupus familiaris; conditions: read-out: PPB (converted)
[2] = Tmax in rat at 10 mg/kg, po; assay type: ADME, organism-based; set-up: dose 10 mg/kg, route oral; conditions: in vivo
[3] = Intrinsic clearance in dog liver microsomes assessed per mg of protein; assay type: ADME, Canis lupus familiaris, Microsome
[4] = Apparent permeability from basolateral to apical side of human Caco2 cells; conditions: Caco-2
[5] = Clearance in rat at 1 mg/kg, iv and 10 mg/kg, po; assay type: ADME, organism-based; conditions: in vivo
[6] = test system: Rattus norvegicus; experiment: fCmax in rat at 10 mg/kg, po; assay type: ADME, organism-based; set-up: dose 10 mg/kg, route oral; conditions: in vivo
[7] = Volume of distribution in dog at 0.5 mg/kg, iv and 1 mg/kg, po; assay type: ADME, organism-based, Canis lupus familiaris; conditions: in vivo
[8] = Plasma protein binding in rat at 1 mg/kg, iv and 10 mg/kg, po; assay type: ADME, organism-based; conditions: read-out: PPB (converted)
[9] = test system: Canis familiaris; experiment: Unbound clearance in dog at 0.5 mg/kg, iv and 1 mg/kg, po; assay type: ADME, organism-based, Canis lupus familiaris; conditions: in vivo
[10] = Half life in rat at 1 mg/kg, iv and 10 mg/kg, po; assay type: ADME, organism-based; conditions: in vivo
[11] = test system: Rattus norvegicus; experiment: Unbound clearance in rat at 1 mg/kg, iv and 10 mg/kg, po; assay type: ADME, organism-based; conditions: in vivo
[12] = test system: Canis familiaris; experiment: fCmax in dog at 0.5 mg/kg, po; assay type: ADME, organism-based, Canis lupus familiaris; set-up: dose 0.5 mg/kg, route oral; conditions: in vivo
[13] = Absorption in rat at 1 mg/kg, iv and 10 mg/kg, po; assay type: ADME, organism-based; conditions: in vivo, read-out: Activity
[14] = Apparent permeability from apical to basolateral side of human Caco2 cells; conditions: Caco-2
[15] = Tmax in dog at 0.5 mg/kg, po; assay type: ADME, organism-based, Canis lupus familiaris; set-up: dose 0.5 mg/kg, route oral; conditions: in vivo
[16] = Oral bioavailability in dog at 1 mg/kg; assay type: ADME, organism-based, Canis lupus familiaris; conditions: in vivo
[17] = Absorption in dog at 0.5 mg/kg, iv and 1 mg/kg, po; assay type: ADME, organism-based, Canis lupus familiaris; conditions: in vivo, read-out: Activity
[18] = Intrinsic clearance in rat liver microsomes assessed per mg of protein; assay type: ADME, Microsome
[19] = Intrinsic clearance in human liver microsomes assessed per mg of protein; assay type: ADME, Microsome
[20] = Oral bioavailability in rat at 10 mg/kg; assay type: ADME, organism-based; conditions: in vivo
[21] = Half life in dog at 0.5 mg/kg, iv and 1 mg/kg, po; assay type: ADME, organism-based, Canis lupus familiaris; conditions: in vivo
[22] = test system: Human immunodeficiency virus 1; experiment: Antiviral activity against maraviroc-resistant HIV1 isolate CC185 at 100 times IC90 concentration; assay type: functional, organism-based
[23] = test system: Human immunodeficiency virus 1; experiment: Antiviral activity against maraviroc-resistant HIV1 isolate CC185 at 10 times IC90 concentration; assay type: functional, organism-based
[24] = test system: Rattus norvegicus; experiment: Unbound clearance in rat at 1 mg/kg, iv and 2 mg/kg, po; assay type: ADME, organism-based; conditions: in vivo
[25] = Clearance in rat at 1 mg/kg, iv and 2 mg/kg, po; assay type: ADME, organism-based; conditions: in vivo
[26] = test system: Human immunodeficiency virus; experiment: Antiviral activity against HIV Ba-L infected in PBMC; assay type: functional; conditions: Human immunodeficiency virus 1, Ba-L
[27] = target: Voltage-gated inwardly rectifying potassium channel KCNH2 (Homo sapiens, UniProt Q12809)
Sequence of Voltage-gated inwardly rectifying potassium channel KCNH2 (Q12809 whole entry): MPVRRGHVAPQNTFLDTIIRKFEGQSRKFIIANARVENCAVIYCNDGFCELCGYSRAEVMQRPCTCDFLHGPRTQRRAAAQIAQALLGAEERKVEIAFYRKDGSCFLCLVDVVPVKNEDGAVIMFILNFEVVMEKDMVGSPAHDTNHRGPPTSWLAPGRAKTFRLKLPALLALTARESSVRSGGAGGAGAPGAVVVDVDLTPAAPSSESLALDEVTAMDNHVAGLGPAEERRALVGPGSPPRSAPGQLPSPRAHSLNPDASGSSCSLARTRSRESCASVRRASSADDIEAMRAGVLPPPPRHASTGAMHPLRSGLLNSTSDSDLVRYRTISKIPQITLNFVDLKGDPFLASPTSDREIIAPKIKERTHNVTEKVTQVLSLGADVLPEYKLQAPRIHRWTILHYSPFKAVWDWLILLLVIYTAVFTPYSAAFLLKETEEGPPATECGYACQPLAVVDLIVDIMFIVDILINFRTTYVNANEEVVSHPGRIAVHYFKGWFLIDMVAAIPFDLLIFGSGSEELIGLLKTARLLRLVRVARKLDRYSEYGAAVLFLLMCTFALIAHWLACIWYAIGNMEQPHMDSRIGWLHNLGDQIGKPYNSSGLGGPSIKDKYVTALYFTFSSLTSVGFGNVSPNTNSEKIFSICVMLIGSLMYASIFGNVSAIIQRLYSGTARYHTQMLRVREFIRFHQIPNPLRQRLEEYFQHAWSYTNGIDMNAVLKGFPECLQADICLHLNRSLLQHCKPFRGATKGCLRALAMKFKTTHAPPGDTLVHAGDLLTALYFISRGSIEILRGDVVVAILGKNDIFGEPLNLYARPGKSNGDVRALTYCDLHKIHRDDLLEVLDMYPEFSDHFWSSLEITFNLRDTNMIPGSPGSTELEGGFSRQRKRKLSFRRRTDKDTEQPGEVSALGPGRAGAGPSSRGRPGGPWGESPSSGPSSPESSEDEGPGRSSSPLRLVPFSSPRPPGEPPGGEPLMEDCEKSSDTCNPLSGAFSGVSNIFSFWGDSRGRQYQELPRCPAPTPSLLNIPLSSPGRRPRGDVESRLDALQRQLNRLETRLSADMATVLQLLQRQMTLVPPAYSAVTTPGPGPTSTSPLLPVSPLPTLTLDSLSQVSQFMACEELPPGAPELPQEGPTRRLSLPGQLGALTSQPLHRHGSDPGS
Description: Displacement of [3H]-dofetilide from human ERG expressed in HEK293 cells

[28] = Oral bioavailability in dog at 0.5 mg/kg; assay type: ADME, organism-based, Canis lupus familiaris; conditions: in vivo
[29] = Volume of distribution in dog at 0.5 mg/kg, iv and 0.5 mg/kg, po; assay type: ADME, organism-based, Canis lupus familiaris; conditions: in vivo
[30] = Plasma protein binding in dog at 0.5 mg/kg, iv and 0.5 mg/kg, po; assay type: ADME, organism-based, Canis lupus familiaris; conditions: read-out: PPB (converted)
[31] = Clearance in dog at 0.5 mg/kg, iv and 0.5 mg/kg, po; assay type: ADME, organism-based, Canis lupus familiaris; conditions: in vivo
[32] = Octanol-buffer partition coefficient, log D of the compound
[33] = test system: Human immunodeficiency virus 1; experiment: Antiviral activity against maraviroc-resistant HIV1 isolate CC185 at IC90 concentration; assay type: functional, organism-based
[34] = Half life in rat at 1 mg/kg, iv and 2 mg/kg, po; assay type: ADME, organism-based; conditions: in vivo
[35] = test system: Canis familiaris; experiment: Unbound clearance in dog at 0.5 mg/kg, iv and 0.5 mg/kg, po; assay type: ADME, organism-based, Canis lupus familiaris; conditions: in vivo
[36] = Plasma protein binding in rat at 1 mg/kg, iv and 2 mg/kg, po; assay type: ADME, organism-based; conditions: read-out: PPB (converted)
[37] = Oral bioavailability in rat at 2 mg/kg; assay type: ADME, organism-based; conditions: in vivo
[38] = Half life in dog at 0.5 mg/kg, iv and 0.5 mg/kg, po; assay type: ADME, organism-based, Canis lupus familiaris; conditions: in vivo
[39] = test system: Rattus norvegicus; experiment: fCmax in rat at 2 mg/kg, po; assay type: ADME, organism-based; set-up: dose 2 mg/kg, route oral; conditions: in vivo
[40] = Clearance in rat at 2 mg/kg, iv and 2 mg/kg, po; assay type: ADME, organism-based; conditions: in vivo
[41] = Half life in rat at 2 mg/kg, iv and 2 mg/kg, po; assay type: ADME, organism-based; conditions: in vivo
[42] = Tmax in rat at 2 mg/kg, po; assay type: ADME, organism-based; set-up: dose 2 mg/kg, route oral; conditions: in vivo
[43] = test system: Rattus norvegicus; experiment: Unbound clearance in rat at 2 mg/kg, iv and 2 mg/kg, po; assay type: ADME, organism-based; conditions: in vivo
[44] = Plasma protein binding in rat at 2 mg/kg, iv and 2 mg/kg, po; assay type: ADME, organism-based; conditions: read-out: PPB (converted)
[45] = target: hERG (KCNH2) (Homo sapiens, UniProt Q12809); experiment: in vitro; conditions: HEK293 cells that express human ERG, probe [3H]-dofetilide
Sequence of hERG (KCNH2) (Q12809 whole entry): as above
Description: Displacement of [3H]-dofetilide from human ERG expressed in HEK293 cells at 300 nM

Compound: Cc1nnc(C(C)C)n1[C@@H]1C[C@H]2CC[C@@H](C1)N2CC[C@H](NC(=O)C1CCC(F)(F)CC1)c1ccccc1 [MARAVIROC]
- fraction unbound [1]: 0.4
- Tmax [2]: 2 h
- microsomal CLint [3]: < 9 µL/min/mg
- Papp B→A [4]: 12 ×10⁻⁶ cm/s
- clearance [5]: 74 mL/min/kg
- Cmax_unbound [6]: 73 nM
- Vd [7]: 4.3 L/kg
- fraction unbound [8]: 0.54
- CL [9]: 53 mL/min/kg
- half-life [10]: 2.3 h
- CL [11]: 137 mL/min/kg
- Cmax_unbound [12]: 80 nM
- Fa [13]: 20%
- Papp A→B [14]: < 1 ×10⁻⁶ cm/s
- Tmax [15]: 1.5 h
- bioavailability [16]: 42%
- Fa [17]: 70%
- microsomal CLint [18]: < 6 µL/min/mg
- microsomal CLint [19]: 49 µL/min/mg
- bioavailability [20]: 6%
- half-life [21]: 2.3 h

Compound: CC(=O)N[C@@H](CCN1[C@@H]2CC[C@H]1C[C@@H](n1c(C)nc3c1CCN(C(=O)C(C)C)C3)C2)c1cccc(F)c1 [PF-232798]
- Activity [22]: Active
- microsomal CLint [3]: < 9 µL/min/mg
- Papp B→A [4]: 8 ×10⁻⁶ cm/s
- Activity [23]: Active
- CL [24]: 526 mL/min/kg
- clearance [25]: 201 mL/min/kg
- IC90 [26]: 0.002 µM
- IC50 [27]: 12 µM
- bioavailability [28]: 31%
- Vd [29]: 10.5 L/kg
- fraction unbound [30]: 0.53
- Papp A→B [14]: 2 ×10⁻⁶ cm/s
- clearance [31]: 36 mL/min/kg
- logD [32]: 2
- Tmax [15]: 1 h
- Activity [33]: Active
- half-life [34]: 1.4 h
- CL [35]: 63 mL/min/kg
- microsomal CLint [18]: < 6 µL/min/mg
- fraction unbound [36]: 0.38
- bioavailability [37]: < 5%
- microsomal CLint [19]: 13 µL/min/mg
- half-life [38]: 3.4 h

Compound: CCC(=O)N1CCc2c(nc(C)n2[C@H]2C[C@H]3CC[C@@H](C2)N3CC[C@H](NC(C)=O)c2cccc(F)c2)C1
- Activity [22]: Active
- Papp B→A [4]: 13 ×10⁻⁶ cm/s
- Activity [23]: Active
- IC50 [27]: 5 µM
- Papp A→B [14]: 2 ×10⁻⁶ cm/s
- logD [32]: 1.7
- Activity [33]: Active
- microsomal CLint [19]: 11 µL/min/mg

Compound: COC(=O)N1CCc2c(nc(C)n2[C@H]2C[C@H]3CC[C@@H](C2)N3CC[C@H](NC(C)=O)c2cccc(F)c2)C1
- Activity [22]: Active
- microsomal CLint [3]: < 9 µL/min/mg
- Papp B→A [4]: 11 ×10⁻⁶ cm/s
- Activity [23]: Active
- IC90 [26]: 0.0008 µM
- IC50 [27]: 2 µM
- Cmax_unbound [39]: 208 nM
- bioavailability [28]: 50%
- clearance [40]: 91 mL/min/kg
- Vd [29]: 9.9 L/kg
- fraction unbound [30]: 0.27
- half-life [41]: 2.3 h
- Cmax_unbound [12]: 9 nM
- Papp A→B [14]: 3 ×10⁻⁶ cm/s
- clearance [31]: 36 mL/min/kg
- Tmax [42]: 2 h
- logD [32]: 1.9
- Tmax [15]: 0.5 h
- Activity [33]: Active
- CL [35]: 150 mL/min/kg
- CL [43]: 253 mL/min/kg
- microsomal CLint [18]: < 6 µL/min/mg
- fraction unbound [44]: 0.32
- bioavailability [37]: 20%
- microsomal CLint [19]: < 8 µL/min/mg
- half-life [38]: 3.3 h

Compound: Cc1nnc(C(C)C)n1[C@H]1C[C@H]2CC[C@@H](C1)N2CC[C@H](NC(=O)C1CCC(F)(F)CC1)c1ccccc1 [MARAVIROC]
- IC90 [26]: 0.0032 µM

Compound: Cc1nc(C(C)C)n([C@H]2C[C@H]3CC[C@@H](C2)N3CC[C@H](NC(=O)C2CCC(F)(F)CC2)c2ccccc2)n1
- Papp B→A [4]: 26 ×10⁻⁶ cm/s
- IC50 [27]: 4.23 µM
- Papp A→B [14]: 11 ×10⁻⁶ cm/s

Compound: COC(=O)N1CCc2nc(C)n([C@H]3C[C@H]4CC[C@@H](C3)N4CC[C@H](NC(C)=O)c3cccc(F)c3)c2C1
- Activity [22]: Active
- microsomal CLint [3]: 32 µL/min/mg
- Activity [23]: Active
- CL [24]: 518 mL/min/kg
- clearance [25]: 46 mL/min/kg
- IC90 [26]: 0.0016 µM
- bioavailability [28]: 42%
- Vd [29]: 11.8 L/kg
- fraction unbound [30]: 0.38
- clearance [31]: 36 mL/min/kg
- Tmax [42]: 2 h
- Tmax [15]: 0.25 h
- Activity [33]: Active
- half-life [34]: 1.7 h
- CL [35]: 93 mL/min/kg
- microsomal CLint [18]: 15 µL/min/mg
- fraction unbound [36]: 0.29
- bioavailability [37]: 8%
- microsomal CLint [19]: 19 µL/min/mg
- half-life [38]: 3.8 h

Compound: COC(=O)N1CCc2nc(C)n([C@H]3C[C@H]4CC[C@@H](C3)N4CC[C@H](NC(C)=O)c3ccccc3)c2C1
- Papp B→A [4]: 16 ×10⁻⁶ cm/s
- inhibition at 0.3 µM [45]: 20%
- Papp A→B [14]: 3 ×10⁻⁶ cm/s
- logD [32]: 1.5
- microsomal CLint [19]: 18 µL/min/mg

Compound: CC(=O)N[C@@H](CCN1[C@@H]2CC[C@H]1C[C@@H](n1c(C)nc3c1CCN(c1ccncn1)C3)C2)c1cccc(F)c1
- Papp B→A [4]: 15 ×10⁻⁶ cm/s
- IC50 [27]: 0.01 µM
- Papp A→B [14]: 4 ×10⁻⁶ cm/s
- logD [32]: 2.6
- microsomal CLint [19]: 35 µL/min/mg

Compound: CC(=O)N[C@@H](CCN1[C@@H]2CC[C@H]1C[C@@H](n1c(C)nc3ccccc31)C2)c1ccccc1
- Papp B→A [4]: 35 ×10⁻⁶ cm/s
- IC50 [27]: 1.5 µM
- Papp A→B [14]: 13 ×10⁻⁶ cm/s

Compound: COC(=O)N[C@@H](CCN1[C@@H]2CC[C@H]1C[C@@H](n1c(C)nc3c1CN(C(C)=O)CC3)C2)c1cccc(F)c1
- Papp B→A [4]: 23 ×10⁻⁶ cm/s
- inhibition at 0.3 µM [45]: 28%
- Papp A→B [14]: 6 ×10⁻⁶ cm/s
- logD [32]: 1.7
- microsomal CLint [19]: 24 µL/min/mg

Compound: CC(=O)N[C@@H](CCN1[C@@H]2CC[C@H]1C[C@@H](n1c(C)nc3c1CCN(c1cnccn1)C3)C2)c1cccc(F)c1
- IC50 [27]: 1 µM
- logD [32]: 3
- microsomal CLint [19]: 183 µL/min/mg

Compound: CC(=O)N[C@@H](CCN1[C@@H]2CC[C@H]1C[C@@H](n1c(C)nc3c1CN(C(=O)C(C)C)CC3)C2)c1ccccc1
- Papp B→A [4]: 20 ×10⁻⁶ cm/s
- inhibition at 0.3 µM [45]: 0%
- Papp A→B [14]: < 1 ×10⁻⁶ cm/s
- logD [32]: 1.6
- microsomal CLint [19]: 42 µL/min/mg
